Results taken from US4956381A, “Treating tissue calcium depletion or degenerative processes in bone or cartilage” (Sandoz Ltd., priority 1987, dated 1990).
Read-outs that look alike come from different tables or passages of the source.

Key:
[1] = Acute toxicity (LD50) in rats; conditions: rat, in vivo, substantially pure Z-isomeric form
pulmonary fibrosis = assay: Pulmonary fibrosis (bleomycin induced); type: in vivo, New Zealand white rabbits; conditions: ca. 2.5 to 60 mg/kg/day p.o.; substantially pure Z-isomeric form; vs placebo
Protocol: Testing is carried out in accordance with the general methodology described by G. J. Laurent et al. in Eur. J. Clin. Invest. (1981) 11, 441-448. Pulmonary fibrosis is induced in groups of 4 New Zealand white rabbits (aged 127 days at commencement of the experiment), each weighing 2.0-2.5 kg, by intratracheal instillation of 10 mg/kg bleomycin. The lungs of test animals are examined 2, 4 and 8 weeks later.

[2] = system: lysosomal enzyme N-acetyl-glucose-aminidase; assay: Prevention of bone resorption: N-acetyl-glucose-aminidase release from calvaria; type: cell-based, Swiss albino mice; conditions: Mus musculus, read-out: IC50 N-acetylglucose-aminidase
Protocol: (§1) Calvaria halves (frontal and parietal parts) from 4-5 day Swiss albino mice are cultured on stainless steel grids in BGJ bone tissue culture medium, supplemented with 1 mg/ml BSA at the interphase of medium and gas in a humidified atmosphere (95% air/5% CO2 ) at 37° C. - c.f. Reynolds et al. in "Organ Culture in Biomed. Res." eds. Balls and Mamichendam, Cambridge University Press, p.p. 355-366 (1976).
(§2) Influence of test substance at varying concentrations on calcium release into :he test medium in the presence of calcium release stimulators [PGE2, LPS or […] (1,25D3)]is determined. For this purpose calcium concentrations are measured in bone culture supernatants obtained from 72 and 144 hour cultures and in TCA extracts of the calvaria at the end of culture by spectrometric methods [Gindler et al., Am. J. Clin. Pathol. 58, 376-382 (1972)]. Activity of lysosomal enzyme N-acetyl-glucose-aminidase in bone culture supernatants and in Triton 100 extracts of calvaria after culture is also determined employing the method of Banerjee and Basu, Biochem. J., 45, 113-118 (1975). Changes in enzyme activity are expressed as μ units/calvarium half and as % release.
(§3) (For the calculation of IC50 values the difference between resorption rate in control cultures and resorption in maximally stimulated cultures is taken as 100 %. The IC50 is taken as the concentration of test substance which inhibits maximum resorption by 50 %)

Calvaria halves = assay: Prevention of bone resorption: calcium release from calvaria; type: cell-based, Swiss albino mice; conditions: Mus musculus
Protocol: as §1, §2, §3

IL-1 = assay: Effect on IL-1 synthesis and release (supernatants, homogenates, lysates of human monocytes); type: cell-based; conditions: chondrocyte bioassay and RIA
Protocol: 0.3 ml Phosphate-buffered saline, containing 1 % heat-in-activated AB-human serum, is added to washed adherent human monocytes and the cells are detached using a rubber-policeman. The solution containing the cells is then transferred to two other wells belonging to the same group. This procedure is repeated three times. The final pooled suspension (0.9 ml) is homogenized using a Dounce homogenizer (Kontes Co, Vineland, NJ) by five times 7 strokes with the B-pestle.
The lysate is prepared by adding to the washed human monocyte monolayers 0.3 ml 0.01 % digitonin in water.
50 μl homogenate is diluted to 500 μl with medium and added to confluent chondrocytes to monitor the metalloproteinase inducing activity as a measure of IL-I content.
The content of IL-1 was also determined in the culture media and the cell homogenates and cell lysates using the RIA-test (see 1.3.).

recombinant human IL-2 = assay: Recombinant human IL-2 induced mouse thymocyte proliferation; type: cell-based; conditions: 10 ng/ml rh IL-2
Protocol: Lymphocyte proliferation is the standard test for monokine activity. It is highly sensitive, though relatively unspecific, with IL-2, phorbol myristate acetate, concanavalin A' g-type-prostaglandin and indomethacin-nall effecting disturbance. Human monocyte culture media are prepared as described under I.I.b. above, diluted 1:10, 1:20 and 1:40 (v:v), and added to […] (obtained from C3H/HeJ mice) Dulbecco's modified Eagle's medium, containing 20 mM hydroxyethyl-piperazin-ethane-sulfonic acid, 12 mM NaHCO3, 2 mM glutamine, 2% foetal bovine serum, 10 μM 2-mercaptoethanol, […] and antibiotics. The cells are incubated for 2 days in 96-well culture plates and the proliferation rate determined using a ^3 H-thymidine pulse (1 μC/well) during the final 6 hours. The incorporated radioactivity is collected on filter paper and counted. […] Thus determined ED50 s for the compounds D2 and K1 each in substantially pure Z-isomeric form in a series of 2 separate experiments each with 3 parallel determinations are of the order of 30 μM
In order to rule out an antagonistic effect or a direct influence of the COMPOUNDS OF THE INVENTION on the proliferation of mouse thymocytes which are used above in the LAF-test, the effect of the COMPOUNDS OF THE INVENTION on the incorporation of ^3 H-thymidine Is determined after thymocyte stimulation with recombinant human IL-1 or IL-2.

monocytes = assay: Effect on monocyte adherence; type: cell-based, human; conditions: 4 h; DNA and LDH of adherent monocytes
Protocol: Monocytes of freshly harvested human mononuclear cells are prepared in presence of the compound to be tested or a vehicle. After 4 h the medium is aspirated and the cell monolayer is washed as usual. The adherent monocytes are then lysed using digitonin in water, and the amount of DNA and the activity of the cytosol enzyme LDH is measured.

human monocytes = assay: Effect on the secretion of monokines (IL-1, TNF-α, IL-6); type: cell-based; conditions: IL-1 and TNF-α by RIA, IL-6 by bioassay
Protocol: Besides IL-1, TNF-α and IL-6 are two well recognized monokines that are released from stimulated monocytes.
Culture media from human monocytes are prepared as described above. The IL-1 and TNF-α content is monitored by the RIA-test, IL-6 by bioassay as disclosed below.
To measure IL-6 in conditioned media from human monocytes, 2.4×10^4 cells/ml B13.29 in 0.2 ml are cultured on 96-well plates (Costar) for 48 h with culture media, diluted in serum free Iscove's modified Dulbecco's medium supplemented with 200 U/ml of recombinant IL-6, 50 μM 2-mercaptoethanol and antibiotics. The proliferation rates are determined using a ^3 H-thymidine pulse (1 μC/well) during the final 6 h. The incorporated radioactivity is collected on filter paper, counted and related to a standard preparation of IL-6.

COC1=Cc2ccccc2/C(=C/C(=O)O)c2ccsc21 [Compound D2, [10-Methoxy-4H-benzo[4,5]cyclohepta[1,2-b]thiophen-4-ylidene]-acetic acid]
LD50 at 168 h ([1]; iv, 7 days): 50 mg/kg | LD50 at 336 h ([1]; po, 14 days): 1720 mg/kg | pulmonary fibrosis (pulmonary fibrosis): substantial reduction of pulmonary fibrosis | IC50 ([2]; in the presence of 1,25D3): 37 µM | IC50 ([2]; in the presence of LPS): 8.3 µM | IC50 ([2]; in the presence of PGE2): 7.9 µM | IC50 (Calvaria halves; in the presence of 1,25D3): 38 µM | IC50 (Calvaria halves; in the presence of LPS): 28 µM | IC50 (Calvaria halves; in the presence of PGE2): 22 µM | levels of IL-1 in the supernatant media (IL-1): significantly reduce the levels of IL-1 in the supernatant media | mean cellular content of IL-1 (IL-1; homogenates and lysates): only slightly reduced or remains unchanged | concentration dependency of influence on rh IL-2 induced proliferation (recombinant human IL-2): no concentration dependency is detectable | influence on recombinant human IL-2 induced proliferation (recombinant human IL-2; 3H-thymidine incorporation, mouse thymocytes): no significant influence | adherence of the monocytes (monocytes): neither the COMPOUNDS OF THE INVENTION, in particular compound D2, nor the vehicle reduce the adherence of the monocytes | inhibition of release of IL-1 compared with IL-6 and TNF-α (human monocytes): inhibit the release of IL-1 in a more significant rate than that of IL-6 and TNF-α
